Assay [1] concerns the target T1, BChE from equine serum (eqBuChE) (Equus caballus, UniProt P81908).
T1 construct: BChE from equine serum (BChE, EC 3.1.1.8); purchased Sigma-Aldrich (St. Louis, MO, USA); host or cells: equine serum
Briefly: biochemical. To be noted: for IC50 / inhibition at 20 µM: average ± standard error (n = 3); for inhibition at 20 µM: read-out: BChE % of Inhibition (Conc. 20 μM), 20 μM. As for the experimental part:
The in vitro cholinesterase inhibitory activity of the synthesized hybrid molecules was evaluated using a modified Ellman’s assay, optimized for 96-well microplate application. AChE from Electrophorus electricus (AChE, EC 3.1.1.7), BChE from equine serum (BChE, EC 3.1.1.8), acetylthiocholine iodide (ATCh), butyrylthiocholine iodide (BTCh), and 5,5′-dithiobis(2-nitrobenzoic acid) were purchased from Sigma-Aldrich (St. Louis, MO, USA) and used without further purification.
Test compounds were initially dissolved in dimethylsulphoxide (DMSO) to yield 1 mM stock solutions and subsequently diluted with 0.1 M phosphate buffer (pH 8.0) to prepare working solutions.
For the assay, 20 µL of compound solution was added to 140 µL of 0.1 M phosphate buffer (pH 8.0) in each well, followed by 20 µL of enzyme solution (AChE or BuChE, 100 U/L). After incubation at room temperature for 10 min, the reaction was initiated by adding 10 µL of DTNB (0.01 M) and 10 µL of substrate (ATCh or BTCh, 0.015 M). […] The percentage inhibition of enzyme activity was calculated using the following equation:(1) % Inhibition=Absorbance of control−Apsorbance of sample/Absorbance of control×100 where the absorbance of the control represents the maximum enzyme activity (without inhibition), and the absorbance of the sample corresponds to the enzyme activity in the presence of the tested compound. Appropriate blanks were included to account for background absorbance and to correct for any intrinsic color of the tested compounds.
All experiments were performed in triplicate.

Assay [2] addresses T2, AChE from Electrophorus electricus (eeAChE) (Electrophorus electricus, UniProt O42275).
T2 construct: purchased Sigma-Aldrich (St. Louis, MO, USA)
The assay can be described thus: biochemical. The conditions noted are these: for inhibition at 20 µM: read-out: AChE % of Inhibition (Conc. 20 μM).

Assay [3] relates to Staphylococcus aureus ATCC 25923. The assay can be described thus: Agar well diffusion, S. aureus. To be noted: for zone of inhibition at 1000 µg/mL: Staphylococcus aureus; for Antibacterial activity in words: agar well diffusion, particularly S. aureus. It counts as cell-based. The protocol: (§1) The antimicrobial potential of the synthesized coumarin–triazole–isatin hybrids was evaluated by the agar well diffusion method. The activity was tested against a variety of Gram-positive bacteria (Staphylococcus aureus ATCC 25923 and ATCC 902710, Staphylococcus epidermidis ATCC 12228, Streptococcus pyogenes ATCC 19615, Enterococcus faecalis ATCC 51299), Gram-negative bacteria (Escherichia coli ATCC 25922, Haemophilus influenzae ATCC 49766, Pseudomonas aeruginosa ATCC 27853, Salmonella typhi ATCC 14028, Neisseria meningitidis ATCC 13090, Neisseria gonorrhoeae ATCC 43069), and fungi (Candida albicans ATCC 60193 and ATCC 90028, Candida orientalis ATCC 6258). All microbial strains were obtained from Microbiologics (St.Cloud, MN, USA).
(§2) The test compounds were dissolved in DMSO to obtain stock solutions (1 mg/mL). Each compound (60 µL) was transferred into wells (6 mm in diameter) that were previously perforated into agar plates inoculated with microbial suspensions standardized to 0.5 McFarland for bacteria and 2 McFarland for Candida spp. DMSO was used as a negative control, while commercial antibiotic disks of novobiocin (5 μg), ampicillin (10 μg), and ciprofloxacin (5 μg) served as positive controls. Antimicrobial activity was assessed by measuring the diameter of zones of inhibition (ZOIs) in millimeters. All tests were conducted in triplicate.
A general note: Agar diffusion results depend on both activity and mobility in agar.

The test system of assay [4] is Staphylococcus epidermidis ATCC 12228. Briefly: Agar well diffusion, S. epidermidis. The format is cell-based. The conditions noted are these: ATCC12228, read-out: Staphylococcus epidermidis ATCC 12228 ZOI, 60 µL of 1 mg/mL per well, ZOI including the well (6 mm), ± SD, n = 3, ciprofloxacin disk 5 μg. The protocol:
as §1, §2

The test system of another assay is S. aureus ATCC 25923. Briefly: MIC by agar dilution, S. aureus. The format is cell-based. The conditions noted are these: Staphylococcus aureus, ATCC25923, 0.39–200 μg/mL, read-out: MIC against S. aureus. (In agar dilution, organisms are placed on agar that contains the substance at set levels.)
In assay [5] the test system is S. epidermidis ATCC 12228. The assay can be described thus: MIC by agar dilution, S. epidermidis. The format is cell-based. To be noted: Staphylococcus epidermidis, ATCC12228, 0.39–200 μg/mL, read-out: MIC against S. epidermidis.
The next assay deals with T3, BChE (Equus caballus, UniProt P81908).
T3 construct: BChE from equine serum (BChE, EC 3.1.1.8); purchased Sigma-Aldrich (St. Louis, MO, USA); host or cells: equine serum
T3 sequence (P81908 whole entry): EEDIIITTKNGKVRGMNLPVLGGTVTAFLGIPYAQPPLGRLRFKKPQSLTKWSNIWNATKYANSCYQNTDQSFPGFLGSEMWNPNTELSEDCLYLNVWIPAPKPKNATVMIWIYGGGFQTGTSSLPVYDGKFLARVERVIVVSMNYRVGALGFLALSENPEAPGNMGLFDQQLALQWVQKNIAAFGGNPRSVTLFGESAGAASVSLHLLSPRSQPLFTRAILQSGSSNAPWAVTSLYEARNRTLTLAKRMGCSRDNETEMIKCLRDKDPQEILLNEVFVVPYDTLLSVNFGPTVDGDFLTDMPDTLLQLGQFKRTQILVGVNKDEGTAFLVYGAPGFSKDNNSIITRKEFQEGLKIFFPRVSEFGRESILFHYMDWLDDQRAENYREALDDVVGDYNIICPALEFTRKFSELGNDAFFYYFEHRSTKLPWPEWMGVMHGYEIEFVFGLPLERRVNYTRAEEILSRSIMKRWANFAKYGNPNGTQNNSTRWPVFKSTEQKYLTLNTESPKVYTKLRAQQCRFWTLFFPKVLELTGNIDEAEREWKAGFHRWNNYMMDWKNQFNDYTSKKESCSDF
The assay can be described thus: Type of enzyme inhibition, Lineweaver–Burk plot. It counts as biochemical, equine. The protocol: The concentrations of substrate and inhibitor used in the assay are given in Section 3.3.1.
The type of enzyme inhibition was assessed using Lineweaver–Burk plots, which represent a linear transformation of the Michaelis–Menten equation. This method enables visual classification of inhibition type by plotting the reciprocal of the initial reaction velocity (1/Vo) against the reciprocal of the substrate concentration (1/[S]).
The intersection pattern of the fitted lines was used to identify the inhibition mechanism. All tests were replicated three times.

[6] abbreviates: ATCC25923, 60 µL of 1 mg/mL per well, ZOI including the well (6 mm), ± SD, n = 3, ciprofloxacin disk 5 μg, read-out: Staphylococcus aureus ATCC 25923 ZOI.

Converted amounts (≈) assume the structure as drawn. Where two headings read alike, the source gives them in different places.

T2 sequence (O42275 24-633): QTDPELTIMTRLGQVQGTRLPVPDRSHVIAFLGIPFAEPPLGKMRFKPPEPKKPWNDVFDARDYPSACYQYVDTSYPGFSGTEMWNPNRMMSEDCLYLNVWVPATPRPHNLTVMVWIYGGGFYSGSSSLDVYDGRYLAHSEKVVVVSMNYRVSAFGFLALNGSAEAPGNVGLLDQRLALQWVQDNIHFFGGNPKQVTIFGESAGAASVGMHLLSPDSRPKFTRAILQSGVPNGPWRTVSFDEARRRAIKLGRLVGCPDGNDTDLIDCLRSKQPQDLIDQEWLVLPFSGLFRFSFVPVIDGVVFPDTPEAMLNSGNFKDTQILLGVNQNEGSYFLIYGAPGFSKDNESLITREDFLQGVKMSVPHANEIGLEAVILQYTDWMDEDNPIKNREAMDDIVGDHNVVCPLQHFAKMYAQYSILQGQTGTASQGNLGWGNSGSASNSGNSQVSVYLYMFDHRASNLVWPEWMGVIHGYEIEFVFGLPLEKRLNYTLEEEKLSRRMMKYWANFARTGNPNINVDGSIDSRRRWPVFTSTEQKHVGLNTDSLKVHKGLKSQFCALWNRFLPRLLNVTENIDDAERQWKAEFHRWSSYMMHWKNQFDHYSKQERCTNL
T1 sequence (P81908 whole entry): as the sequence (P81908 whole entry) above

In assay [1], `O=C1C(=O)N(Cc2cn(CCCOc3cc(=O)oc4ccccc34)nn2)c2ccc(Br)cc21` [Compound 6b4, 5-bromo-1-((1-(3-((2-oxo-2H-chromen-4-yl)oxy)propyl)-1H-1,2,3-triazol-4-yl)methyl)indoline-2,3-dione] showed an IC50 of 13.3 ± 2.19 µM. Moreover, the values for the inhibition at 20 µM in assay [1] and in assay [2] were 66.2 ± 8.11% and 22.9 ± 2.11%, respectively. The zone of inhibition at 1000 µg/mL in assay [3] (ATCC25923, read-out: Staphylococcus aureus ATCC 25923 ZOI, 60 µL of 1 mg/mL per well, ZOI including the well (6 mm), ± SD, n = 3, ciprofloxacin disk 5 μg) is 20 mm; in assay [4], 14 mm. Also, in assay [3], the “Antibacterial activity in words” value is “moderate antibacterial effects”. Also, the MIC amounted to 6.25 µg/mL (≈ 12.3 µM) with S. aureus ATCC 25923 and 25 µg/mL (≈ 49.1 µM) in assay [5].

`O=C1C(=O)N(Cc2cn(CCOc3cc(=O)oc4ccccc34)nn2)c2ccc(F)cc21` [Compound 6a2, 5-fluoro-1-((1-(2-((2-oxo-2H-chromen-4-yl)oxy)ethyl)-1H-1,2,3-triazol-4-yl)methyl)indoline-2,3-dione]: in assay [1], the midpoint of inhibition, the IC50, lay at 9.16 ± 1.69 µM and the inhibition at 20 µM turned out to be 66.2 ± 5.18%. Further, the inhibition at 20 µM in assay [2] is 11.8 ± 1.18%. Besides, in assay [3], the “Antibacterial activity in words” value is recorded as “failed to exhibit significant activity”. The zone of inhibition at 1000 µg/mL in assay [4] came to 9.16 ± 1.69 mm.

Take `O=C1C(=O)N(Cc2cn(CCCCOc3cc(=O)oc4ccccc34)nn2)c2ccccc21` [Compound 6c1, 1-((1-(4-((2-oxo-2H-chromen-4-yl)oxy)butyl)-1H-1,2,3-triazol-4-yl)methyl)indoline-2,3-dione]: the figures for the IC50 in assay [1] and in assay [2] (average ± standard error (n = 3)) were 1.74 ± 0.29 µM and 15.3 ± 1.22 µM, respectively. Besides, the “Selectivity BChE/AChE” value in assay [1] (ratio of AChE and BChE IC50) is listed as 8.78. Further, the inhibition at 20 µM in assay [1] came out at 84.5 ± 8.46%; in assay [2] it was 67.1 ± 3.27%. The “α value (affinity constant)” value at BChE (from Lineweaver–Burk plot) is reported as “greater than 1”. At BChE (substrate 1–8 mM, inhibitor 4, 8, 12 μM), the Type of inhibition entry is “mixed-type inhibition”. In addition, the zone of inhibition at 1000 µg/mL in assay [3] (setting [6]) worked out at 8.67 ± 1.15 mm; in assay [4], 1.74 ± 0.29 mm. Also, the “Antibacterial activity in words” value in assay [3] is “only weak antibacterial activity”.

With `O=C(O)c1cn(C2CC2)c2cc(N3CCNCC3)c(F)cc2c1=O` [Ciprofloxacine, ciprofloxacin, reference compound], the “Staphylococcus aureus ATCC 25923 ZOI” value in assay [3] (60 µL of 1 mg/mL per well, ZOI including the well (6 mm), ± SD, n = 3, ciprofloxacin disk 5 μg) came to 27.00 ± 1.62 mm. For the same molecule, the zone of inhibition at 1000 µg/mL was 27 mm in assay [3] (setting [6]) and 5.24 ± 1.16 mm in assay [4]. The MIC (in the assay with S. aureus ATCC 25923; in assay [5]) was 0.78 µg/mL (≈ 2.35 µM) each time.

In assay [1], `O=C1C(=O)N(Cc2cn(CCCOc3cc(=O)oc4ccccc34)nn2)c2ccc(I)cc21` [Compound 6b5, 5-iodo-1-((1-(3-((2-oxo-2H-chromen-4-yl)oxy)propyl)-1H-1,2,3-triazol-4-yl)methyl)indoline-2,3-dione] gave an IC50 of 14.8 ± 1.44 µM. The inhibition at 20 µM in assay [1] was determined as 61.6 ± 7.49%; in assay [2], 27.6 ± 1.49%. The “Antibacterial activity in words” value in assay [3] is “largely inactive”. In assay [4], the zone of inhibition at 1000 µg/mL is 14.8 ± 1.44 mm.

`O=C1C(=O)N(Cc2cn(CCOc3cc(=O)oc4ccccc34)nn2)c2ccc(Br)cc21` [Compound 6a4, 5-bromo-1-((1-(2-((2-oxo-2H-chromen-4-yl)oxy)ethyl)-1H-1,2,3-triazol-4-yl)methyl)indoline-2,3-dione]: the inhibition at 20 µM in assay [1] is 22.7 ± 3.87%; in assay [2] it was 4.57 ± 0.87%. For the same molecule, the zone of inhibition at 1000 µg/mL in assay [3] (setting [6]) lay within 12 to 20 mm. Besides, the “Antibacterial activity in words” value in assay [3] is reported as “showed activity”. Moreover, the MIC in the assay on S. aureus ATCC 25923 is 12.5 µg/mL (≈ 25.2 µM).

For `O=C1C(=O)N(Cc2cn(CCCOc3cc(=O)oc4ccccc34)nn2)c2ccc(F)cc21` [Compound 6b2, 5-fluoro-1-((1-(3-((2-oxo-2H-chromen-4-yl)oxy)propyl)-1H-1,2,3-triazol-4-yl)methyl)indoline-2,3-dione], in assay [1], the IC50 worked out at 5.9 ± 1.09 µM. The inhibition at 20 µM in assay [1] was 75.5 ± 5.69%; in assay [2] it was 44.3 ± 5.69%. The zone of inhibition at 1000 µg/mL in assay [3] (setting [6]) was found to be 9.33 ± 4.04 mm; in assay [4] it was 5.9 ± 1.09 mm. The “Antibacterial activity in words” value in assay [3] is “only modest antibacterial effect”.

The IC50 is the midpoint of a concentration-inhibition curve. Low readings indicate inhibition by little substance, high ones a need for much substance. By inhibition is commonly meant the drop in the measured response relative to a control, in per cent. As usually defined, the MIC is the least concentration at which growth counts as inhibited.

These data come from paper PMC12114297 (Molecules, 2025).
